The text below walks through data of patent EP4609848A1 (I-D Actives, S.L., priority 2024, dated 2025).

This data set in a line: Phase solubility study with cyclodextrins (β-CDs, HP-β-CDs) in galega water, spectrophotometric titration. Format: physicochemical. As for the experimental part: The inventors performed solubility studies in an aqueous media in the absence and presence of solvents and in the presence of increasing concentrations of different types of CDs (β-CDs and HP-β-CDs).
According to the traditional interpretation, this study was carried out using the solubility method.
On the other hand, further sea buckthorn oil solubilization tests were performed with galega water solutions containing 80 mM HP-β-cyclodextrin and another solution with 10 mM β-cyclodextrin.

≈ marks a conversion by molar mass, not a printed value.

As for `Oc1ccc(C=Cc2cc(O)cc(O)c2)cc1` [Resveratrol, resveratrol], under “25 °C, water, thermodynamic from solid”, the solubility (thermodynamic) (as a rule, the concentration in solution at equilibrium with solid) at 60 min came to 40 µg/mL (≈ 175 µM). Where the note is “in absence of CDs, galega water”, this molecule displayed a solubility of resveratrol of 25 µg/mL.
